Results published in US20100227884A1 (priority 2007, published 2010).

How the values were obtained:
Assay type in all cases: in vivo
[1] = system: Botrytis cinerea; assay: Test Example 2: curative effect on Botrytis disease of cucumber; conditions: cucumber (Sagami Hanjiro), wettable powder, 200 ppm foliar spray after inoculation, 12° C. for 2 days under high humidity
Experimental: (§1) The area of lesions on the test plants at testing was visually observed, and the control effect was evaluated by comparing the area of lesions on test plants treated with the invented compound with the area of lesions on untreated plants.
Test for showing curative effect on Botrytis disease of cucumber (Botrytis cinerea):
Sand soil was packed in a plastic pot, and seeds of cucumber (variety: Sagami Hanjiro) were sowed therein and grown for 12 days in a greenhouse. A PDA medium containing spores of Botrytis cinerea was placed on the surface of leaves of the cucumber to inoculate the surface of leaves of the cucumber. Then, the wettable powder of each of the invented compounds (1) and (2) and the comparative compound (A) was diluted with water to a concentration of 200 ppm and was sprayed onto the foliage of the cucumber so that a sufficient amount of the compound would be applied to the surface of leaves of the cucumber. After spraying, the plant was air-dried and left at 12° C. for 2 days under high humidity, and then the area of lesions was examined.
As a result, the lesion area on the plant treated with the invented compounds (1) and (2) was respectively less than 11% and less than 15% of the lesion area on the plant of untreated plant. The lesion area on the plant treated with the comparative compound (A) was 98% of the untreated plant.

[2] = system: Botrytis cinerea; assay: Test Example 1: preventive effect on Botrytis disease of cucumber; conditions: cucumber (Sagami Hanjiro), flowable formulation, 200 ppm foliar spray before inoculation, 12° C. for 5 days under high humidity
Experimental: as §1
Test for showing preventive effect on Botrytis disease of cucumber (Botrytis cinerea):
Sand soil was packed in a plastic pot, and seeds of cucumber (variety: Sagami Hanjiro) were sowed therein and grown for 12 days in a greenhouse. Each of the invented compounds (1)-(5) and the comparative compound (A) was formulated into flowable formulation in accordance with Formulation Example 6, and it was diluted with water to a given concentration (200 ppm) and was sprayed onto the foliage of the cucumber so that a sufficient amount of the compound would be applied to the surface of leaves of the cucumber. After spraying, the plant was air-dried and PDA medium containing spores of Botrytis cinerea was placed on the surface of leaves of the cucumber. After the inoculation, the plant was left at 12° C. for 5 days under high humidity, and then the area of lesions was examined. As a result, the lesion area on the plant treated with the invented compounds (1)-(5) was less than 10% of the lesion area on the untreated plant. The lesion area on the plant treated with the comparative compound (A) was 98% of the untreated plant.

[3] = system: Magnaporthe grisea; conditions: rice (Nihonbare), flowable formulation, 500 ppm foliar spray before inoculation, 5 days after inoculation

## CCOc1cccc(CNC(=O)c2ccc3ncccc3c2)c1F [invented compound (2), N-(3-ethoxy-2-fluorophenyl)methyl-quinoline-6-carboxamide]
[1]
  lesion area on the treated plant as % of the lesion area on the untreated plant: less than 15%

## CC(C)CCOc1cccc(CNC(=O)c2ccc3ncccc3c2)c1 [comparative compound (A), N-(3-(3-methylbutoxy)phenyl)methyl-quinoline-6-carboxamide]
[2]
  lesion area on the treated plant as % of the lesion area on the untreated plant: 98%
[1]
  lesion area on the treated plant as % of the lesion area on the untreated plant: 98%
[3]
  lesion area on the treated plant as % of the lesion area on the untreated plant: 98%

## COc1cccc(CNC(=O)c2ccc3ncccc3c2)c1F [invented compound (1), N-(2-fluoro-3-methoxyphenyl)methyl-quinoline-6-carboxamide]
[1]
  lesion area on the treated plant as % of the lesion area on the untreated plant: less than 11%
